Measured values as given in PubChem BioAssay AID1963969 (Molecular Pharmacology Branch, DTP, NCI, 2024).
Several values for one entry are separate records, joined by “and”; a condition that tells them apart may be missing. Equal values may be shown once.

System: 817829-284-R-J1-PDC multi-cell spheroid viability
Assay: Anticancer human tumor 817829-284-R-J1-PDC patient-derived colon adenocarcinoma cell line growth inhibition [PI3K]
Details: for viability, T/C: stronger effect = lower value
Excerpt: Combinatorial screen of targeted agents with the PI3K inhibitors inavolisib, alpelisib, duvelisib, and copanlisib in multi-cell type tumor spheroids
A high-throughput screen of multi-cell type tumor spheroids was designed to identify active combinations of targeted small molecules and PI3K pathway inhibitors. Complex spheroids include a stromal component modeled by human endothelial cells (HUVEC) and fibroblasts modeled by human mesenchymal stem cells (MSCs). The concentration ranges selected for each drug and investigational agent were based upon clinically achievable concentrations if the clinical Cmax of the agent was known.
Compounds. The drugs and investigational agents: inavolisib (NSC800729), alpelisib (NSC765974), duvelisib (NSC772469), copanlisib (NSC816437), ipatasertib (NSC767898), afuresertib (NSC778305), talazoparib (NSC767125), sapanisertib (NSC764658), selumetinib (NSC741078), tovorafenib (DAY101, NSC766906), vemurafenib (NSC761431), ravoxertinib (NSC781343), sotorasib (NSC818433), MRTX1133 (NSC 836407), abemaciclib (NSC 768073), palbociclib (NSC758247), venetoclax (NSC 766270), SY5609 (NSC837396), enzalutamide (NSC755605), and darolutamide (NSC825331), were obtained from the National Cancer Institute (NCI) Developmental Therapeutics Program Chemical Repository. The FDA-approved anticancer drug set is available from the NCI Developmental Therapeutics Program. […] The stock solutions were prepared in dimethyl sulfoxide (DMSO, Sigma-Aldrich, St. Louis, MO, cat. D2650) at 800-fold the tested concentration and stored at -70 degrees C prior to their use. All drugs and investigational agents were tested over a range starting from a high concentration at or near the clinical Cmax and decreasing in half-log increments. If the clinical Cmax for an agent had not been determined, the highest concentration tested was 10 microM.
Cell Culture. All cells were maintained in an incubator at 37 degrees C and 5% CO2 with 95% humidity. The PDC lines were cultured according to standard operating procedures established by the NCI PDMR (https://pdmr.cancer.gov/sops/default.htm). All PDCs were thawed and cultured in Matrigel-coated flasks prepared with a working solution of 1X Ham's F-12 nutrient mix, without supplementation (Invitrogen, Waltham, MA, cat. 11765054), 100 U/mL penicillin-streptomycin (Invitrogen, cat. 15140122), and 2.5% Matrigel (Corning Inc., Corning, NY, cat. 354248) for the first three passages. The 354836-022-R-J1-PDC, 475296-252-R-J1-PDC, and 997726-040-R-J2-PDC lines were cultured in 6A media, which includes advanced DMEM/F-12 (Thermo Fisher Scientific, cat. 12634028), 10 mM HEPES (Thermo Fisher Scientific, cat. 15630080), 1X GlutaMAX supplement (Thermo Fisher Scientific, cat. 35050061), 0.1 mg/mL primocin (InvivoGen, San Diego, CA, cat. ant-pm-2), 10% defined fetal bovine serum, heat inactivated (HyClone Laboratories Inc., Logan, UT, cat. SH30070.03HI), 50% L-WRN conditioned media (ATCC, cat. CRL-3276), 1.25 mM N-Acetyl-L-cysteine (Sigma-Aldrich, cat. A9165), 10 mM nicotinamide (Sigma-Aldrich, cat. N0636), 1X B-27 supplement (Thermo Fisher Scientific, cat. 17504044), 1X N-2 supplement (Thermo Fisher Scientific, cat. 17502048), and 10 microM Y-27632 dihydrochloride (Tocris Bioscience, Bristol, United Kingdom, cat. 1254). The 624824-186-R-J2-PDC line was cultured in 6C/Colon 1B media, which includes all 6A media components plus 50 ng/mL human EGF recombinant protein (Thermo Fisher Scientific, cat. PHG0311). […]

[1] = compound alone, run of 04/24/2023
[2] = compound alone, run of 04/25/2023
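Note: spheroids exposed to agents for seven days before readout.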
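Throughout, for viability, T/C: percent of vehicle DMSO control viability which is 100%.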

Row | IC50 (curve of compound) | SMILES | viability, T/C (compound 0.0316 µM) | viability, T/C (compound 0.1 µM) | viability, T/C (compound 0.316 µM) | viability, T/C (compound 1 µM) | viability, T/C (compound 3.16 µM) | viability, T/C (compound 10 µM) | also measured
1 | 6660 nM and > 10000 nM | C#Cc1c(F)ccc2cc(O)cc(-c3ncc4c(N5CC6CCC(C5)N6)nc(OCC56CCCN5CC(F)C6)nc4c3F)c12 (configuration not stated) | 83.3% and 99% | 95.1% and 72.9% | 69.9% and 83% | 68.4% and 99.7% | 87.7% and 88.6% | 33.2% and 56.2% | –
2 | 8660 nM and 9740 nM | C=CC(=O)N1CCN(c2nc(=O)n(-c3c(C)ccnc3C(C)C)c3nc(-c4c(O)cccc4F)c(F)cc23)C(C)C1 (configuration not stated) | 90.5% and 112% | 107% and 70.5% | 70.2% and 97.6% | 104% and 120% | 85.3% and 104% | 44.3% and 48.8% | –
3 | – | CC(=O)c1c(C)c2cnc(Nc3ccc(N4CCNCC4)cn3)nc2n(C2CCCC2)c1=O | 54.6% [middle of 4 runs] | 39.3% [middle of 4 runs] | – | – | – | – | –
4 | 179 nM and 168 nM | CC(C)NCC(C(=O)N1CCN(c2ncnc3c2C(C)CC3O)CC1)c1ccc(Cl)cc1 (configuration not stated) | 74.6% and 90.4% | 61.1% and 54.8% | 38.5% and 41.4% | 28% and 27.8% | 21% and 17.3% | 10.7% and 10.9% | –
5 | 33 nM and 20.9 nM and 24.6 nM | CC(C)n1nc(-c2ccc3oc(N)nc3c2)c2c(N)ncnc21 | 58.9% and 37.7% and 41.6% | 21.2% and 24% and 17.7% | – | – | – | – | viability, T/C (compound 0.000316 µM): 54.7% and 69.8% and 94.8%; viability, T/C (compound 0.001 µM): 120% and 96.8% and 70%; viability, T/C (compound 0.00316 µM): 68.2% and 77.3% and 63.2%; viability, T/C (compound 0.01 µM): 52.8% and 72.2% and 93.4%
6 | > 10000 nM | CC(Cn1ccc(-c2ccc(C#N)c(Cl)c2)n1)NC(=O)c1cc(C(C)O)[nH]n1 (configuration not stated) | – | – | – | – | – | – | –
7 | – | CC(Nc1ccc2c(c1)OCCn1cc(N3C(=O)OCC3C(F)F)nc1-2)C(N)=O (configuration not stated) | – | – | – | – | – | – | viability, T/C (compound 0.00316 µM): 82.8% [middle of 6 runs]; IC50 [1]: > 1000 nM and 280 nM and 1000 nM
8 | – | CC(Nc1ncnc2nc[nH]c12)c1cc2cccc(Cl)c2c(=O)n1-c1ccccc1 (configuration not stated) | 98.7% and 80.4% | 78.1% and 107% | 98.9% and 104% | 89% and 74.1% | 82.9% and 94.8% | 66% and 70.4% | IC50 [2]: > 10000 nM
9 | > 10000 nM and 5630 nM and 3670 nM | CC1(C)CCC(CN2CCN(c3ccc(C(=O)NS(=O)(=O)c4ccc(NCC5CCOCC5)c([N+](=O)[O-])c4)c(Oc4cnc5[nH]ccc5c4)c3)CC2)=C(c2ccc(Cl)cc2)C1 | 66.2% and 63.1% and 99.8% | 60.4% and 90.3% and 105% | 60.5% and 85.7% and 66.8% | 84.6% and 95.4% and 97.1% | 98.1% and 98.5% and 56.7% | – | –
10 | < 31.6 nM | CC1(C)CCC(Nc2ncc(C(F)(F)F)c(-c3c[nH]c4c(P(C)(C)=O)c(C#N)ccc34)n2)CN1 (configuration not stated) | 25.3% and 24.7% | 25% and 26.2% | 27.4% and 32.9% | 30.6% and 31.8% | 32.7% and 38.6% | 0.65% and 1.29% | –
11 | 4450 nM and 4780 nM and 1420 nM | CCCS(=O)(=O)Nc1ccc(F)c(C(=O)c2c[nH]c3ncc(-c4ccc(Cl)cc4)cc23)c1F | 91.8% and 75.6% and 87.7% | 75.9% and 81.4% and 57.4% | 82.7% and 65.9% and 44.2% | 90% and 62.3% and 54.9% | 68% and 89.2% and 50.6% | 7.12% and 5.31% and 3% | –
12 | > 1000 nM | CCN1CCN(Cc2ccc(Nc3ncc(F)c(-c4cc(F)c5nc(C)n(C(C)C)c5c4)n3)nc2)CC1 | 61.9% and 73.5% | 68.2% and 59.2% | 55.8% and 49.5% | 58% and 51% | – | – | viability, T/C (compound 0.00316 µM): 81.3% and 60.8%; viability, T/C (compound 0.01 µM): 103% and 82.2%
13 | > 10000 nM and 6480 nM | CNC(=O)c1ccc(N2C(=S)N(c3ccc(C#N)c(C(F)(F)F)c3)C(=O)C2(C)C)cc1F | 86.9% and 87.2% and 88.4% | 93.2% and 97.5% and 76.6% | 70.6% and 71.9% and 77.2% | 99.3% and 68.8% and 80.3% | 84.2% and 97.4% and 67.9% | 65.4% and 29% and 68.9% | –
14 | – | COc1c(OCCCN2CCOCC2)ccc2c3n(c(=NC(=O)c4cnc(N)nc4)nc12)CCN3 | 60.5% [middle of 6 runs] | 39.5% [middle of 6 runs] | 21.5% [middle of 6 runs] | 10.1% [middle of 6 runs] | – | – | viability, T/C (compound 0.01 µM): 83.5% [middle of 6 runs]; IC50 [2]: 58.3 nM [middle of 6 runs]
15 | > 10000 nM | C[C@@H](NC(=O)c1ncnc(N)c1Cl)c1ncc(C(=O)Nc2cc(C(F)(F)F)c(Cl)cn2)s1 | 97.5% and 79.4% | 79.2% and 114% | 89.2% and 87.8% | 70.5% and 67% | 113% and 64.2% | 59.5% and 101% | –
16 | – | Cc1nc(NC(=O)N2CCCC2C(N)=O)sc1-c1ccnc(C(C)(C)C(F)(F)F)c1 (configuration not stated) | – | – | – | – | – | 68.7% [middle of 6 runs] | IC50 [1]: > 10000 nM
17 | 901 nM and 649 nM | Cn1cnc2c(F)c(Nc3ccc(Br)cc3Cl)c(C(=O)NOCCO)cc21 | – | – | – | – | – | – | viability, T/C (compound 0.00949 µM): 87.3% and 90.1%; viability, T/C (compound 0.03 µM): 70.7% and 64.5%; viability, T/C (compound 0.0949 µM): 65% and 73.3%; viability, T/C (compound 0.3 µM): 62.5% and 52.7%; viability, T/C (compound 0.949 µM): 55.5% and 55.6%; viability, T/C (compound 3 µM): 33.4% and 21.9%
18 | < 31.6 nM and 118 nM | Cn1ncc(Cl)c1-c1cc(C(=O)NC(CN)Cc2cccc(F)c2)sc1Cl (configuration not stated) | 52.7% and 85.2% | 47.4% and 54.1% | 31.6% and 27.1% | 18.3% and 22.5% | 16.1% and 20.2% | 76.6% and 13.4% | –
19 | 5420 nM and 7460 nM | Cn1nccc1Nc1nccc(-c2ccn(C(CO)c3ccc(Cl)c(F)c3)c(=O)c2)n1 (configuration not stated) | 100% and 96.5% | 68.5% and 79.2% | 84.3% and 83.6% | 110% and 86.8% | 71.2% and 81.6% | 26% and 39.2% | –
20 | 51.4 nM and 62.8 nM | Cn1ncnc1[C@H]1c2n[nH]c(=O)c3cc(F)cc(c23)N[C@@H]1c1ccc(F)cc1 | 55.6% and 55% | 41.3% and 46.6% | – | – | – | – | viability, T/C (compound 0.000316 µM): 113% and 70.3%; viability, T/C (compound 0.001 µM): 106% and 90.1%; viability, T/C (compound 0.00316 µM): 83.9% and 67%; viability, T/C (compound 0.01 µM): 75.3%
